Patent US20020187484A1, “Molecular break lights probes for detecting nucleotide cleavage” (priority 2000, published 2002)
Where two headings read alike, the source gives them in different places. Marks after values point to notes of the source that are not given here.

B1: BamHI: restriction endonuclease, commercially available (protein, UniProt P23940 1-213, looked up)
Type II restriction enzyme …: MEVEKEFITDEAKELLSKDKLIQQAYNEVKTSICSPIWPATSKTFTINNTEKNCNGVVPIKELCYTLLEDTYNWYREKPLDILKLEKKKGGPIDVYKEFIENSELKRVGMEFETGNISSAHRSMNKLLLGLKHGEIDLAIILMPIKQLAYYLTDRVTNFEELEPYFELTEGQPFIFIGFNAEAYNSNVPLIPKGSDGMSKRSIKKWKDKVENK

Columns and labels:
break light A [1] = experiment: Molecular break light assay: cleavage of break light A by enediynes and Fe^+2-dependent agents; assay type: biochemical; conditions: for Vmax: 37° C.; for agent concentration at maximum turnover (Vapp/[cleavage agent]): [molecular break light A] = 3.2 nM; for effect of ascorbate on DNA-cleavage: addition of ascorbate; for agent concentration at maximum turnover: [A] = 32 nM
Description: Samples were analyzed with a FluoroMax-2 spectrofluorometer equipped with DataMax for Windows (Instruments S. A., Inc.; Edison, N.J.) and the temperature controlled (30° C., unless otherwise noted) by a Haake Circulator DC10. All samples were filtered prior to analysis and analyzed via a timebase scan (λex=485 nm, λEm=517 nm) in a Suprasil quartz cuvette (10 mm path) fitted with a magnetic stirring bar in a total volume of 2 mL. […] Total cleavage of the labeled oligonucleotide, confirmed by polyacrylamide gel electrophoresis (PAGE), was defined as the maximum fluorescence emission possible under saturated cleaving conditions. Emission units were converted to the amount of labeled oligonucleotide used within a procedure, thereby equating labeled oligonucleotide degradation as a function of the emission of fluorescence.
Enediyne antibiotics calicheamicin and esperamicin at varying concentrations (0.31, 0.78, 1.6, 3.2, 15.9, and 31.7 nM) were incubated in 40 mM Tris-HCl (pH 7.5) with 3.2 nM of the calicheamicin-specific labeled molecular break light oligonucleotide (A). DNA cleavage was initiated with the addition of 1 μL 100 mM dithiothreitol (“DTT”) to produce a final concentration of 50 μM DTT, and the reaction was monitored over 10 minutes via spectrofluorometry.
Pseudo-first order kinetic parameters were utilized to determine the initial velocities at each given enediyne concentration. Specifically, graphical representation of the data was based upon equation 2 where [A]t is the concentration of cleaved oligonucleotide at a given time (t) and [A]0 is the initial concentration of oligonucleotide in the assay. Least squares analysis gave the slope (k), or rate, which was converted to V by the relationship in equation 3. The maximum velocity achieved (Vmax) was then selected from the range of concentrations examined.
ln[A]t=−kt+ln[A]0 [Equation 2]
Bleomycin, an Fe^+2-dependent nucleic acid cleavage agent, is a natural metabolite from Streptomyces verticillus. Blenoxane (a mixture containing approximately 70% bleomycin A2 and 30% bleomycin B2) was dissolved in water & optically standardized (ε291=1.7×10^4M^−1 cm^−1). Bleomycin mediated cleavage was adapted from procedures outlined by Giloni et al. J. Biol. Chem. 256: 8608-8615 (1981). Several different concentrations of bleomycin (200 nM, 100 nM, 50 nM, 25 nM, 12.5 nM, 5 nM, and 2.5 nM) were incubated in 50 mM sodium phosphate, 2.5 mM ascorbate, at pH 7.5 and 37° C. with 3.2 nM of the molecular break light A.
The reaction was initiated by the addition of 65 mM Fe(II) and monitored over 5 minutes. This protocol was repeated with the addition of 5 mM sodium ascorbate to the above conditions. Pseudo-first order kinetic parameters were utilized to determine the initial velocities at each given bleomycin concentration as previously described.
In a first assay, 3.2 nM break light A was incubated in 40 mM Tris HCl and 2.5 mM ascorbate at 37° C. and pH 7.5. Cleavage was initiated by addition of MPE/Fe(II) in a 1.2:1 molar ratio to various concentrations. Final Fe(II) concentrations were 8 μM, 4 μM, 2 μM, 1 μM, 500 nM, 250 nM, and 125 nM.
In a second assay, 32 nM molecular break light A was incubated in 40 mM Tris and 2.5 mM sodium ascorbate at pH 7.5 and 37° C. Cleavage was initiated by addition of MPE/Fe(II) in a 1.2:1 molar ratio to various concentrations. Final Fe(II) concentrations were 50 nM, 125 nM, 250 nM, 500 nM, 1 μM, and 2 μM.
In a third assay, 32 nM break light A (calicheamicin-specific molecular break light oligonucleotide) was incubated in 40 mM Tris and 2.5 mM sodium ascorbate at pH 7.5 and 37° C.

[2] = system: dual fluorophoric-labeled dsDNA; conditions: 0.8 nM dual fluorophoric-labeled dsDNA, FCS spectrometer; cited from earlier work
molecular break light B = experiment: BamHI steady state kinetics and sensitivity limits with break light B; assay type: biochemical
Description: Samples were analyzed with a FluoroMax-2 spectrofluorometer equipped with DataMax for Windows (Instruments S. A., Inc.; Edison, N.J.) and the temperature controlled (30° C., unless otherwise noted) by a Haake Circulator DC10. All samples were filtered prior to analysis and analyzed via a timebase scan (λex=485 nm, λEm=517 nm) in a Suprasil quartz cuvette (10 mm path) fitted with a magnetic stirring bar in a total volume of 2 mL. Reactions were equilibrated to the incubation temperature before initiation of DNA cleavage as was evident by a steady background emission over 10 min. Total cleavage of the labeled oligonucleotide, confirmed by polyacrylamide gel electrophoresis (PAGE), was defined as the maximum fluorescence emission possible under saturated cleaving conditions. Emission units were converted to the amount of labeled oligonucleotide used within a procedure, thereby equating labeled oligonucleotide degradation as a function of the emission of fluorescence.
Determination of BamHI (10 units/μL) specific cleavage was performed in 6 mM TrisHCl, 100 mM NaCl, 6 mM MgCl2, and 1 mM DTT, at 37° C. and pH 7.5 with 3.2 nM of molecular break light B (FIG. 2B) and varying amounts of BamHI-specific oligonucleotide lacking the fluorophore and quenching moieties. Total substrate concentrations (including break light) were as follows: 389 nM, 196 nM, 81 nM, 42 nM, 11 nM, 7.5 nM, and 3.4 nM.
The reaction was initiated with 10 U BamHI enzyme and monitored via spectrofluorometry over a time course of fifteen minutes. The initial rate of DNA cleavage was determined from data within the first 100 seconds of initiation which was then adjusted according to equation 1. These adjusted values were utilized for the reciprocal plot from which the Michaelis-Menten kinetic parameters were determined.
Vact=Vobs([Sact]/[S*]) [Equation 1]
The steady-state kinetic parameters for a commercially available BamHI were determined. The dependence of BamHI hydrolysis on substrate concentration was investigated using mixtures of a fixed amount of molecular break light B and varying amounts of an analogous non-labeled oligonucleotide (lacking both FAM and DABCYL) over a wide substrate concentration range. The apparent competitive inhibition observed due to phenomenon of “carrier dilution” was corrected to give the appropriate kinetic parameters. See, e.g., Roy, et al. (1994).
The observed velocity (Vapp) is related to the actual velocity (Vact) by equation [I] where [Sact] and [S*] are the total substrate concentration and B concentration, respectively. The reciprocal plot after correction for this “carrier dilution” phenomenon is illustrated in FIG. 4b.
A recent fluorescence correlation spectroscopy (FCS) assay for the restriction endonuclease EcoRI using 0.8 nM of dual fluorophoric-labeled dsDNA and a highly specialized FCS spectrometer, reported a detection limit of 1.6 pM EcoRI. Kettling, U., et al. (1998). Under the conditions containing even slightly less oligonucleotide (0.68 nM molecular break light), cleavage was easily detectable to 3.7 pM BamHI. […] This assay was performed undert the same conditions as the other assays in this Example.

break light A [3] = experiment: BamHI / DNaseI digestion of break light A (proof of principle); assay type: biochemical; conditions: 3.2 nM break light A, 37° C.; 100 U BamHI or 10 U DNaseI
Description: (§1) The cleavage of molecular break light probes A and B by BamHI was investigated. In a first assay, break light A and break light B were each incubated with 100 U BamHI. As a control, break light B was also incubated without enzyme. The incubations occurred at 37° C. in a solution containing 10 mM TrisHCl, 50 mM NaCl, 10 mM MgCl2, and 1 mM DTT at pH 7.9.
(§2) In a second assay, break light A and break light B were each incubated with 10 U DnaseI. As a control, break light A was also incubated without enzyme. The incubations occurred at 37° C. in a solution containing 40 mM Tris HCl, 10 mM MgSO4, and 1 mM CaCl2 at pH 8.0.

break light B = experiment: BamHI / DNaseI digestion of break light B (proof of principle); assay type: biochemical
Description: as §1, §2

[4] = system: oligonucleotide substrate; conditions: previously reported values for BamHI; cited from earlier work
[5] = [DNA]total = 3.2 nM, MPE as common agent

| Molecule | Turnover (Vmax/[Agent]) (break light A [1]; [DNA]total = 3.2 nM) | Vmax (break light A [1]; [DNA]total = 3.2 nM) | Comparison to EDTA (fold enhancement over EDTA turnover) (break light A [1]; [5]) | agent concentration at maximum turnover (Vapp/[cleavage agent]) (break light A [1]) | effect of ascorbate on DNA-cleavage (break light A [1]) | agent concentration at maximum turnover (break light A [1]) | Comparison to EDTA (fold enhancement over EDTA turnover) (break light A [1]; [DNA]total = 32 nM) | Turnover (Vmax/[Agent]) (break light A [1]; [DNA]total = 32 nM) | Vmax (break light A [1]; [DNA]total = 32 nM) | other results |
| --- | --- | --- | --- | --- | --- | --- | --- | --- | --- | --- |
| esperamicin A1 | 0.009 s⁻¹ | 0.007 ± 0.001^d nM sec^−1 | 6.1 × 10^5 fold |  |  |  |  |  |  | maximum fluorescence upon cleavage, compared with DNaseI (break light A [1]; 3.2 nM break light A, excess DTT): identical to that observed with DNaseI; enhancement of cleavage efficiency over bleomycin (break light A [1]; from Table 1): ~10 fold |
| bleomycin | 0.001 s⁻¹ | 0.009 ± 0.001^d nM sec^−1 | 6.8 × 10^4 fold | 2.5 nM | did not affect |  |  |  |  | detection of agent by the assay (sensitivity range) (break light A [1]; 3.2 nM break light A, conditions described): nM range; additional increase of cleavage efficiency over MPE (break light A [1]; from Table 1): 10 fold |
| methidiumpropyl-Fe^+2-EDTA [Methidiumpropyl-EDTA] | 2.4e-05 s⁻¹ | 0.003 ± 0.001^d nM sec^−1 | 1.6 × 10^3 fold | 125 nM | critical for efficient DNA-cleavage | ~50 nM | 1.6 × 10^3 fold | 0.002 s⁻¹ | 0.118 ± 0.004^e nM sec^−1 | enhancement of cleavage efficiency in comparison to Fe^+2-EDTA (break light A [1]; from Table 1): ~10^3 fold |
| EcoRI: restriction endonuclease |  |  |  |  |  |  |  |  |  | detection limit [2]: 1.6 pM |
| O=C([O-])CN(CCN(CC(=O)[O-])CC(=O)[O-])CC(=O)[O-].[Fe+2].[H+].[H+] [EDTA, Fe^+2-EDTA] |  |  |  |  | critical for efficient DNA-cleavage | ~1300 nM | 1.0 fold | 1.5e-06 s⁻¹ | 0.002 ± 0.001^e nM sec^−1 |  |
| B1 |  |  |  |  |  |  |  |  |  | detection limit (molecular break light B): 0.12 pM; detection limit (cleavage easily detectable to) (molecular break light B; 0.68 nM molecular break light): 3.7 pM; Vmax (molecular break light B; 10 U BamHI, 3.2 nM break light B plus non-labeled oligonucleotide, 37° C., pH 7.5): 0.024 ± 0.001 nM/s; Km (molecular break light B; 10 U BamHI, break light B plus non-labeled oligonucleotide, 37° C., pH 7.5): 8.9 ± 0.5 nM; Comparison to EDTA (fold enhancement over EDTA turnover) (molecular break light B; BamHI, break light B): 4.8 × 10^5 fold; Turnover (Vmax/[Agent]; also known as kcat) (molecular break light B; BamHI, break light B): 0.007^c sec^−1; detection limit (molecular break light B; molecular break light concentration 34 nM): 0.12 pM; change in fluorescence intensity over time (break light A [3]): no change; change in fluorescence intensity over time (break light B; 3.2 nM break light B, 37° C., 100 U BamHI or 10 U DNaseI): increase of fluorescence; fluorescence maximum intensity upon complete cleavage, relative to DNaseI (break light B; same concentration of molecular break light): 75%; Km [4]: 0.4 nM; V max, previously reported [4]: 0.009 nM/s |
